Values after ≈ are worked out from the molar mass of the structure shown. Like-named read-outs stand apart in the source and are kept apart here.
Assays:
[1] = test system: ES100 (tolC deficient derivative of AB734); experiment: MIC by broth microdilution, ES100; assay type: cell-based, E. coli; conditions: for MIC: Escherichia coli, read-out: MIC ES100 (tolC); for MIC ES100 +PMBN: with polymyxin B nonapeptide (4 μg/ml)
Description: (§1) Selected DdlB inhibitors were tested for their antibacterial activity against two E. coli strains E. coli 1411 and E. coli AB734 (Table 2). […] Additionally, growth inhibition of efflux pump-deficient strains SM1411 (acrAB deficient derivative of 1411) and ES100 (tolC deficient derivative of AB734) was measured, and MICs were repeated for each strain in the presence of polymyxin B nonapeptide (PMBN) to assess the impact of outer-membrane permeability on antimicrobial activity.
(§2) Minimum inhibitory concentrations (MICs) were determined by broth microdilution against E. coli 1411, SM1411 (acrAB deficient derivative of 1411), AB734 and ES100 (tolC deficient derivative of AB734) according to CLSI guidelines. MICs were repeated for each strain in the presence of polymyxin B nonapeptide (4 μg/ml) to assess the impact of outer-membrane permeability on antimicrobial activity.

[2] = test system: SM1411 (acrAB deficient derivative of 1411); experiment: MIC by broth microdilution, SM1411; assay type: cell-based, E. coli; conditions: for MIC: Escherichia coli, read-out: MIC SM1411 (acrAB); for MIC SM1411 +PMBN: with polymyxin B nonapeptide (4 μg/ml)
Description: as §1, §2

[3] = test system: E. coli 1411; experiment: MIC by broth microdilution, E. coli 1411; assay type: cell-based; conditions: for MIC: Escherichia coli, 1411, read-out: MIC 1411; for MIC 1411 +PMBN: with polymyxin B nonapeptide (4 μg/ml)
Description: as §1, §2

[4] = target: T1, E. coli DdlB (Escherichia coli, UniProt P07862); experiment: Colorimetric malachite green inhibition assay of DdlB; assay type: biochemical; conditions: for IC50: malachite green assay, 700 μM D-Ala, 500 μM ATP, 37°C, 20 min, read-out: inhibitory activity on DdlB: IC50
T1 construct: polyhistidine (His) tag (N); made in house; host or cells: E. coli BL21(λDE3), vector pQE-30 UA (Qiagen)
Description: All of the synthesized 6-arylpyrido[2,3-d]pyrimidines 11–36 were assayed for in vitro inhibitory activity on E. coli DdlB by detecting orthophosphate generated during the enzymatic reaction using a Malachite green assay.
Inhibition of DdlB was measured at different inhibitor and ATP concentrations in order to determine Ki values and the mode-of-action of both compounds.
The target compounds were tested for their ability to inhibit the D-Ala-adding activity of DdlB ligase with the colorimetric malachite green method in which orthophosphate generated during the reaction is measured. Each compound was tested in duplicate at 100, 250 or 500 μM in a mixture, final volume 50 μL, containing 50 mM Hepes (pH 8.0), 5 mM MgCl2, 10 mM (NH4)2SO4, 10 mM KCl, 700 μM D-Ala, 500 μM ATP, purified His-tagged DdlB (diluted in 50 mM Hepes (pH 7.2) and 1 mM DTT) and the test compound dissolved in DMSO. The final concentration of DMSO was 5% (v/v). The reaction mixture was incubated at 37°C for 20 min, then quenched with 100 μL of Biomol reagent and absorbance at 650 nm was measured after 5 min. To exclude possible promiscuous inhibitors, all compounds were tested in the presence of Triton-114 (0.005%). Residual activities were calculated relative to control assays without the compounds and with DMSO.

[5] = target: T2, DdlB (Escherichia coli, UniProt P07862); experiment: Surface plasmon resonance binding to immobilised DdlB; conditions: steady-state affinity model; 25°C; 50 mM Hepes, 150 mM NaCl, 5% DMSO; read-out: KD (SPR)
T2 construct: polyhistidine (His) tag (N); made in house; host or cells: E. coli BL21(λDE3), vector pQE-30 UA (Qiagen)
Description: The binding of the compounds 11, 13, 14, 24, 27, 33, and 35 to the target enzyme was confirmed using surface plasmon resonance (SPR) (Figure 10). Experiments were performed at conditions that enable long term stability of the enzyme. […] The enzyme was covalently attached to the surface of a sensor chip CM5 and compounds were titrated over the surface. The binding of all the compounds was characterised by fast association and dissociation rates. Equilibrium affinity constants, estimated from the steady-state binding levels are in agreement with enzymatic studies and ITC. In addition, the binding of other compounds was tested but insufficient solubility at higher concentrations of analytes in the running buffer precluded analysis.
Figure 10 SPR analysis of compounds binding to DdlB. Different concentrations of compounds were tested for the binding (left panels in all cases). The binding curves (right panels) were generated by ploting steady-state response levels, i.e. at the end of the association phase, vs concentration of the injected compound. For each compound 3–5 independent titrations were performed.
The binding constants were obtained by using a Biacore T100 (Biacore, GE Healthcare, USA). […] Two 1 min injections of 50 μg/ml DdlB diluted in 10 mM Na-acetate, pH 4.0 were applied on the second flow cell. The first flow cell was left unmodified and served as a control for non-specific binding of tested compounds. The remaining active groups on the surface of both flow cells were deactivated with a 7-min injection of ethanolamine. The level of immobilized enzyme was around 10000 response units.
Each analyte was titrated, with 3 or 4 repetitions, using different concentrations according to their solubility in running buffer (50 mM Hepes, 150 mM NaCl, 5% DMSO, pH 7.4), usually from 0,781 μM to 500 μM. One concentration was repeated at the end of the assay in each dilution series, in order to check the surface stability and repeatability. The association lasted 60 seconds at a flow-rate 30 μl/min. No regeneration was needed. All experiments were performed at 25°C. Sensorgrams were double referenced by subtracting the signal obtained in the empty flow cell and the injection of the buffer. The steady-state response levels were fitted using the Steady State Affinity model in Biacore T100 Evaluation software.

[6] = test system: E. coli AB734; experiment: MIC by broth microdilution, E. coli AB734; assay type: cell-based; conditions: for MIC: Escherichia coli; for MIC AB734 +PMBN: with polymyxin B nonapeptide (4 μg/ml)
Description: as §1, §2

[7] = test system: E. coli strains (1411, AB734, SM1411, ES100); experiment: Antibacterial activity stated for the E. coli strains together; assay type: cell-based; conditions: for antibacterial activity (in words): efflux-deficient, permeabilised cells
Description: as §1, §2

melting point [°C] | Structure (SMILES) | MIC [1] [µg/mL] | MIC ES100 +PMBN [1] | MIC [2] [µg/mL] | MIC SM1411 +PMBN [2] | MIC [3] [µg/mL] | MIC 1411 +PMBN [3] [µg/mL] | IC50 [4] [µM] | MIC AB734 +PMBN [6] [µg/mL] | further results
146 to 148 | COc1cc(OC)cc(-c2cc3cnc(NCCCN4CCOCC4)nc3nc2N)c1 [Compound 15, 6-(3,5-dimethoxyphenyl)-N2-(3-morpholinopropyl)pyrido[2,3-d]pyrimidine-2,7-diamine] | – | – | – | – | – | – | – | – | –
– | COc1cc(OC)cc(-c2cc3cnc(N)nc3nc2N)c1 [Compound 13, 6-(3,5-dimethoxyphenyl)pyrido[2,3-d]pyrimidine-2,7-diamine] | > 256 | 64 µg/mL (≈ 215 µM) | > 256 | 128 µg/mL (≈ 431 µM) | > 256 | >256 | 908 | >256 | MIC ([6]; AB734, read-out: MIC AB734): > 256 µg/mL
124 to 127 | Nc1nc2nc(NCCCN3CCOCC3)ncc2cc1-c1c(Cl)cccc1Cl [Compound 28, 6-(2,6-dichlorophenyl)-N2-(3-morpholinopropyl)pyrido[2,3-d]pyrimidine-2,7-diamine] | – | – | – | – | – | – | – | – | –
– | COc1cc(OC)cc(-c2cc3cnc(NCCCN4CCOCC4)nc3nc2NC(=O)NC(C)(C)C)c1 [Compound 16, 1-tert-butyl-3-(6-(3,5-dimethoxyphenyl)-2-(3-morpholinopropylamino)pyrido[2,3-d]pyrimidin-7-yl)urea] | > 256 | 128 µg/mL (≈ 244 µM) | > 256 | 128 µg/mL (≈ 244 µM) | > 256 | >256 | 133 | >256 | antibacterial activity (in words) [7]: weak antibacterial activity; fold improved IC50 against DdlB compared to lead compound 33 ([4]; ratio of IC50 values, 16 against 33): 3.4 fold; MIC ([6]; AB734, read-out: MIC AB734): > 256 µg/mL
> 300 | CC(C)(C)NC(=O)Nc1nc2nc(N)ncc2cc1-c1c(F)cccc1Cl [Compound 32, 1-(2-amino-6-(2-chloro-6-fluorophenyl)pyrido[2,3-d]pyrimidin-7-yl)-3-tert-butylurea] | – | – | – | – | – | – | – | – | –
> 300 | Nc1ncc2cc(-c3cc(C(F)(F)F)cc(C(F)(F)F)c3)c(N)nc2n1 [Compound 18, 6-(3,5-bis(trifluoromethyl)phenyl)pyrido[2,3-d]pyrimidine-2,7-diamine] | – | – | – | – | – | – | – | – | –
92 to 95 | COc1cc(OC)cc(-c2cc3cnc(NCCCN(C)C)nc3nc2N)c1 [Compound 17, 6-(3,5-dimethoxyphenyl)-N2-(3-(dimethylamino)propyl)pyrido[2,3-d]pyrimidine-2,7-diamine] | – | – | – | – | – | – | – | – | –
241 to 244 | CN(C)CCCNc1ncc2cc(-c3c(Cl)cccc3Cl)c(N)nc2n1 [Compound 30, 6-(2,6-dichlorophenyl)-N2-(3-(dimethylamino)propyl)pyrido[2,3-d]pyrimidine-2,7-diamine] | – | – | – | – | – | – | – | – | –
> 300 | Nc1ncc2cc(-c3c(F)cccc3Cl)c(N)nc2n1 [Compound 31, 6-(2-chloro-6-fluorophenyl)pyrido[2,3-d]pyrimidine-2,7-diamine] | – | – | – | – | – | – | – | – | –
> 300 | CC(C)(C)NC(=O)Nc1nc2nc(N)ncc2cc1-c1ccc2c(c1)OCO2 [Compound 36, 1-(2-amino-6-(benzo[d][1,3]dioxol-5-yl)pyrido[2,3-d]pyrimidin-7-yl)-3-tert-butylurea] | – | – | – | – | – | – | – | – | –
> 300 | Nc1ncc2cc(-c3cc(F)cc(F)c3)c(N)nc2n1 [Compound 20, 6-(3,5-difluorophenyl)pyrido[2,3-d]pyrimidine-2,7-diamine] | – | – | – | – | – | – | – | – | –
– | Nc1ncc2cc(-c3c(Cl)cccc3Cl)c(N)nc2n1 [Compound 26, 6-(2,6-dichlorophenyl)pyrido[2,3-d]pyrimidine-2,7-diamine] | 1 (≈ 3.27 µM) | 0,25 μg/ml | 2 (≈ 6.53 µM) | 0,5 μg/ml | – | – | 529 | – | –
– | CC(C)(C)NC(=O)Nc1nc2nc(N)ncc2cc1-c1c(Br)cccc1Br [Compound 34, 1-(2-amino-6-(2,6-dibromophenyl)pyrido[2,3-d]pyrimidin-7-yl)-3-tert-butylurea] | 4 (≈ 8.09 µM) | 0,5 μg/ml | > 256 | 4 µg/mL (≈ 8.09 µM) | > 256 | 32 (≈ 64.8 µM) | 583 | 32 (≈ 64.8 µM) | antibacterial activity (in words) [7]: weak antibacterial activity; MIC ([6]; AB734, read-out: MIC AB734): > 256 µg/mL
– | CC(C)(C)NC(=O)Nc1nc2nc(N)ncc2cc1-c1cc(C(F)(F)F)cc(C(F)(F)F)c1 [Compound 19, 1-(2-amino-6-(3,5-bis(trifluoromethyl)phenyl)pyrido[2,3-d]pyrimidin-7-yl)-3-tert-butylurea] | > 256 | 64 µg/mL (≈ 135 µM) | > 256 | >256 µg/mL | > 256 | >256 | 260 | >256 | antibacterial activity (in words) [7]: weak antibacterial activity; MIC ([6]; AB734, read-out: MIC AB734): > 256 µg/mL

Structure (SMILES) | melting point [°C] | MIC [1] [µg/mL] | MIC ES100 +PMBN [1] | MIC [2] [µg/mL] | MIC SM1411 +PMBN [2] | MIC [3] [µg/mL] | MIC 1411 +PMBN [3] [µg/mL] | IC50 [4] [µM] | MIC AB734 +PMBN [6] [µg/mL] | further results
Nc1ncc2cc(-c3c(F)cccc3F)c(N)nc2n1 [Compound 24, 6-(2,6-difluorophenyl)pyrido[2,3-d]pyrimidine-2,7-diamine] | > 300 | 16 (≈ 58.6 µM) | 8 µg/mL (≈ 29.3 µM) | 64 (≈ 234 µM) | 8 µg/mL (≈ 29.3 µM) | 64 (≈ 234 µM) | 16 (≈ 58.6 µM) | 1110 | 16 (≈ 58.6 µM) | MIC 1411 ([3]; without PMBN): 64 µg/mL (≈ 234 µM); Kd [5]: 103 ± 7.8 µM; MIC ([6]; AB734, without PMBN, read-out: MIC AB734): 64 µg/mL (≈ 234 µM); MIC AB734 ([6]; without PMBN): 64 µg/mL (≈ 234 µM)
Nc1ncc2cc(-c3ccccc3)c(N)nc2n1 [Compound 11, 6-phenylpyrido[2,3-d]pyrimidine-2,7-diamine] | > 300 | – | – | – | – | – | – | 1140 | – | Kd [5]: 150 ± 33.1 µM
Nc1ncc2cc(-c3cc(Cl)cc(Cl)c3)c(N)nc2n1 [Compound 22, 6-(3,5-dichlorophenyl)pyrido[2,3-d]pyrimidine-2,7-diamine] | > 300 | – | – | – | – | – | – | – | – | MIC ([7]; Escherichia coli, read-out: MICs against all strains): > 256 µg/mL
CC(C)(C)NC(=O)Nc1nc2nc(N)ncc2cc1-c1cc(Cl)cc(Cl)c1 [Compound 23, 1-(2-amino-6-(3,5-dichlorophenyl)pyrido[2,3-d]pyrimidin-7-yl)-3-tert-butylurea] | 179 to 182 | > 256 | 16 µg/mL (≈ 39.5 µM) | > 256 | 32 µg/mL (≈ 79 µM) | > 256 | >256 | 383 | >256 | antibacterial activity (in words) [7]: weak antibacterial activity; MIC ([6]; AB734, read-out: MIC AB734): > 256 µg/mL

Reference: paper PMC3410885, “6-Arylpyrido[2,3-d]pyrimidines as Novel ATP-Competitive Inhibitors of Bacterial D-Alanine:D-Alanine Ligase” (PLoS ONE, 2012)
